Results as given in PMC10108266, “Pharmacokinetic characteristics of golidocitinib, a highly selective JAK1 inhibitor, in healthy adult participants” (Frontiers in Immunology, 2023).
Read-outs that look alike come from different tables or passages of the source.

Experiments:
[1] = JACKPOT3 single-ascending-dose plasma PK, healthy Chinese participants; type: in vivo, human; conditions: for AUC(0-inf) / Cmax / Vd/F / half-life / Tmax: human, plasma; for AUC(0-inf) / Cmax: geometric mean (CV%)
Source text: This was a SAD study in healthy adult Asian participants, with a study design similar to the SAD cohorts of JACKPOT2 study. […] A total of 32 healthy participants were randomized to receive a single dose of golidocitinib or matched placebo (6:2).
After single oral administration, serial blood samples were obtained on Day 1 at pre-dose, and at 0.5, 1, 1.5, 2, 3, 4, 6, 8, 12, 24 (Day 2), 48 (Day 3), 72 (Day 4), 120 (Day 6), 168 (Day 8) and 216 (Day 10) hours post-dose for plasma PK analysis. Urine samples were collected during the collection intervals of 0-4, 4-10, 10-24, 24-48, 48-72, 72-96, 96-120, 120-144, and 144-168 hours following a single oral dose of 100 mg for urine PK analysis. Validated LC/MS methods were used for the determination of golidocitinib in human plasma and urine by Frontage Laboratories Inc. (Shanghai). This method was cross validated by Frontage Laboratories Inc. (New Jersey, USA) and met the acceptance criteria.

[2] = JACKPOT2 food effect cohort (50 mg, fasted vs high-fat meal); type: in vivo, human; conditions: for AUC0-inf, Geometric Mean Ratio (90% CI) (Test vs Reference) / AUC0-t, Geometric Mean Ratio (90% CI) (Test vs Reference) / Cmax, Geometric Mean Ratio (90% CI) (Test vs Reference) / AUC(0-inf) / AUC(0-t) / Cmax: 50 mg; for AUC0-inf, Geometric Mean Ratio (90% CI) (Test vs Reference) / AUC0-t, Geometric Mean Ratio (90% CI) (Test vs Reference) / Cmax, Geometric Mean Ratio (90% CI) (Test vs Reference): fed versus fasted, percent ratio of geometric least square means; for AUC(0-inf): read-out: AUC0-inf, Geometric mean (%CV); for AUC(0-t): read-out: AUC0-t, Geometric mean (%CV); for Cmax: read-out: Cmax, Geometric mean (%CV)
Method: A total of 42 and 24 healthy participants were enrolled in part A and part B, respectively. In part A, a total of 30 participants were randomized into 5 SAD cohorts (n = 6 per cohort) and received a single dose of golidocitinib at different dose levels or a matching placebo in a 4:2 ratio. In the food effect cohort, a total of 12 participants were enrolled and received the study drug under fasted or fed conditions, with a sequential design. The 50 mg dose was selected based on available safety data after the completion of the SAD cohorts, and also on the outcomes from PK/PD modeling for potential efficacious dose for autoimmune disease. On Day 1, participants took a single dose of golidocitinib under fast condition. After a 14-day wash-out period, on Day 15, participants received another single dose of golidocitinib immediately after a standard high-fat meal. Food recipes and contents are consistent with that described in FDA Guidance for Food-Effect Bioavailability studies ([10]). For the fed condition, keeping fasted for at least 10 hours, participants started ingestion of high-fat meal 30 minutes prior to administration of golidocitinib. They had to finish the meal within 30 minutes or less, and no food was allowed for at least 4 hours post-dose. In part B, a total of 24 participants were randomized into 3 MAD cohorts, with 8 in each cohort (active:placebo = 6:2). In these cohorts, participants received golidocitinib at different dose levels or placebo once daily dosing for 14 days. Dose escalation was based on available PK and safety data in the previous cohorts.
For food effect assessment, log-transformed PK parameters (AUC0-t, AUC0-inf, and Cmax) of golidocitinib were analyzed using a mixed-effect model including terms for study treatment (fasted and fed) as fixed effects, and participants nested within treatment as a random effect. The CIs on the ratios of untransformed PK parameters were derived through a reverse transformation of the 90% CIs for the differences of the means in the log scale from the mixed-effect model. Least-squares geometric means, a ratio of the geometric means and 90% CIs on the ratio of fed to fasted were presented.

[3] = Safety (TEAEs), JACKPOT2 MAD cohorts; type: in vivo, human; conditions: n = 6
Source text: Safety assessments included monitoring of adverse events/serious adverse events, clinical safety laboratory tests (clinical chemistry, hematology, coagulation, and urinalysis tests), 12-lead ECG, vital signs (blood pressure, pulse rate, and respiratory rate), and pulmonary function. All adverse events were coded using the Medical Dictionary for Regulatory Activities (MedDRA), version 22.0. The CTCAE 5.0 was used to define the intensity of AEs.

[4] = In vitro binding to human plasma; type: in vitro ADME
[5] = human, plasma, oral, 50 mg single dose, Fasted (Reference), N = 12
[6] = human, plasma, oral, 50 mg single dose, High-fat meal (Test), N = 11

## COc1nn(C)cc1Nc1nccc(-c2c[nH]c3c(NC(=O)[C@@H](C)N4CCN(C)CC4)cccc23)n1 [golidocitinib, (2R)-N-[3-[2-[(3-Methoxy-1-methyl-pyrazol-4-yl)amino]pyrimidin-4-yl]-1H-indol-7-yl]-2-(4-methylpiperazin-1-yl)propenamide]
[1]; oral, single dose 25 mg
  AUC(0-inf): 1230 ng·h/mL
  Cmax: 40.8 ng/mL
[1]; oral, single dose 25 mg, mean (SD), read-out: Vz/F
  Vd/F: 1040 L
[1]; oral, single dose 25 mg, median (min, max), read-out: t1/2 (converted)
  half-life: 2280 min
[1]; oral, single dose 25 mg, median (min, max), read-out: tmax
  Tmax: 3 h
[1]; oral, single dose 50 mg
  AUC(0-inf): 2370 ng·h/mL
  Cmax: 75 ng/mL
[1]; oral, single dose 50 mg, mean (SD), read-out: Vz/F
  Vd/F: 1160 L
[1]; oral, single dose 50 mg, median (min, max), read-out: t1/2 (converted)
  half-life: 2350 min
[1]; oral, single dose 50 mg, median (min, max), read-out: tmax
  Tmax: 2 h
[1]; oral, single dose 100 mg
  AUC(0-inf): 4740 ng·h/mL
  Cmax: 184 ng/mL
[1]; oral, single dose 100 mg, mean (SD), read-out: Vz/F
  Vd/F: 826 L
[1]; oral, single dose 100 mg, median (min, max), read-out: t1/2 (converted)
  half-life: 1700 min
[1]; oral, single dose 100 mg, median (min, max), read-out: tmax
  Tmax: 2 h
[1]; oral, single dose 150 mg
  AUC(0-inf): 8340 ng·h/mL
  Cmax: 280 ng/mL
[1]; oral, single dose 150 mg, mean (SD), read-out: Vz/F
  Vd/F: 1210 L
[1]; oral, single dose 150 mg, median (min, max), read-out: t1/2 (converted)
  half-life: 2800 min
[1]; oral, single dose 150 mg, median (min, max), read-out: tmax
  Tmax: 1.75 h
[1]; single oral administration, Chinese participants, read-out: mean Vz/F
  Vd/F: 826 to 1210 L
[1]; single oral administration, across the dose range, Chinese participants, read-out: median terminal half-life (t1/2)
  half-life: 1700 to 2800 min
[1]; single oral administration, across the dose range, Chinese participants, read-out: median tmax
  Tmax: 1.75 to 3 h
[1]; single dose 50 mg, mean (SD)
  CL/F: 21.2 (13.1) L/hr
[1]; single dose 100 mg, mean (SD)
  CL/F: 21.4 (16.5) L/hr
[1]; single dose 150 mg, mean (SD)
  CL/F: 18.1 (14.2) L/hr
[2]; 50 mg single dose, High-fat meal (Test), N = 11
  tmax, Median (range): 6.00 (4.00, 14.0) hour
[2]
  AUC0-inf, Geometric Mean Ratio (90% CI) (Test vs Reference): 116.5 (111.2, 122.0) %
  AUC0-t, Geometric Mean Ratio (90% CI) (Test vs Reference): 115.0 (109.3, 121.0) %
  Cmax, Geometric Mean Ratio (90% CI) (Test vs Reference): 108.9 (97.81, 121.2) %
[2]; listed as Golidocitinib
  AUC0-inf, Geometric Mean Ratio (90% CI) (Test vs Reference): 116.5 (111.2-122.0) %
  AUC0-t, Geometric Mean Ratio (90% CI) (Test vs Reference): 115.0 (109.3-121.0) %
  Cmax, Geometric Mean Ratio (90% CI) (Test vs Reference): 108.9 (97.81-121.2) %
[2]; [5]
  AUC(0-inf): 2960 ng·h/mL
  AUC(0-t): 2770 ng·h/mL
  Cmax: 68.8 ng/mL
[2]; [6]
  AUC(0-inf): 3400 ng·h/mL
  AUC(0-t): 3230 ng·h/mL
  Cmax: 73.7 ng/mL
[2]; human, plasma, oral, 50 mg single dose, Fasted (Reference), N = 12, read-out: tmax, Median (range)
  Tmax: 6 h
[3]; 25 mg once daily 14 days
  Abdominal pain upper: 0 n (%)
  Blood and Lymphatic Disorders: 1 (16.7%) n (%)
  Constipation: 1 (16.7%) n (%)
  Dry throat: 0 n (%)
  Gastrointestinal disorders: 1 (16.7%) n (%)
  Headache: 0 n (%)
  Injury, poisoning and procedural complications: 0 n (%)
  Leukopenia: 0 n (%)
  Nausea: 0 n (%)
  Nervous System Disorders: 0 n (%)
  Neutropenia: 1 (16.7%) n (%)
  Respiratory, Thoracic and Mediastinal Disorders: 0 n (%)
  Reticulocytopenia: 0 n (%)
  Skin Laceration: 0 n (%)
  Subjects with at least one TEAE: 2 (33.3%) n (%)
[3]; 50 mg once daily 14 days
  Abdominal pain upper: 1 (16.7%) n (%)
  Blood and Lymphatic Disorders: 0 n (%)
  Constipation: 1 (16.7%) n (%)
  Dry throat: 0 n (%)
  Gastrointestinal disorders: 1 (16.7%) n (%)
  Headache: 1 (16.7%) n (%)
  Injury, poisoning and procedural complications: 0 n (%)
  Leukopenia: 0 n (%)
  Nausea: 1 (16.7%) n (%)
  Nervous System Disorders: 1 (16.7%) n (%)
  Neutropenia: 0 n (%)
  Respiratory, Thoracic and Mediastinal Disorders: 0 n (%)
  Reticulocytopenia: 0 n (%)
  Skin Laceration: 0 n (%)
  Subjects with at least one TEAE: 1 (16.7%) n (%)
[3]; 100 mg once daily 14 days
  Abdominal pain upper: 0 n (%)
  Blood and Lymphatic Disorders: 3 (50.0%) n (%)
  Constipation: 0 n (%)
  Dry throat: 0 n (%)
  Gastrointestinal disorders: 0 n (%)
  Headache: 1 (16.7%) n (%)
  Injury, poisoning and procedural complications: 0 n (%)
  Leukopenia: 2 (33.3%) n (%)
  Nausea: 0 n (%)
  Nervous System Disorders: 1 (16.7%) n (%)
  Neutropenia: 3 (50.0%) n (%)
  Respiratory, Thoracic and Mediastinal Disorders: 0 n (%)
  Reticulocytopenia: 1 (16.7%) n (%)
  Skin Laceration: 0 n (%)
  Subjects with at least one TEAE: 3 (50.0%) n (%)
[4]; human plasma of Caucasian and Chinese, in vitro
  bound to human plasma: ~ 63%
[4]; human, plasma, read-out: free fraction in plasma
  fraction unbound: 0.373
